The source made the active and inactive calls.
Legend:
[1] = target: T1, Protein skinhead-1 (Caenorhabditis elegans, UniProt P34707); assay type: functional
T1 sequence (P34707 whole entry): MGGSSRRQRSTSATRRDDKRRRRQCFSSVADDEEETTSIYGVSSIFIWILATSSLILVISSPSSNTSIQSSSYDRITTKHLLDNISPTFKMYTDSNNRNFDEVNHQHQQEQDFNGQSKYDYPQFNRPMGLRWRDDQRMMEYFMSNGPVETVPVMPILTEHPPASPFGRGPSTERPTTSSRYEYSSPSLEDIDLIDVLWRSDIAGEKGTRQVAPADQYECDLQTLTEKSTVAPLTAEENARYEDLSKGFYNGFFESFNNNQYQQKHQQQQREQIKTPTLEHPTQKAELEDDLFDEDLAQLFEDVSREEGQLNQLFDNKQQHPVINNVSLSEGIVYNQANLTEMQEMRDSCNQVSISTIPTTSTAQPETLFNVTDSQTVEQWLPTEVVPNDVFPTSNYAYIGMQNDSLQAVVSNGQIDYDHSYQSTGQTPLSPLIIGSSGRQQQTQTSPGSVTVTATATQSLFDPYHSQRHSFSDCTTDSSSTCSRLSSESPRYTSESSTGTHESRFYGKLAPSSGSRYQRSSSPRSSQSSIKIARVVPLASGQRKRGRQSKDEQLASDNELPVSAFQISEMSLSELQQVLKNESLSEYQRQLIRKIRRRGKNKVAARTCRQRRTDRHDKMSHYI

[2] = target: Cytochrome P450 2C19 (Homo sapiens, UniProt P33261); assay: Cytochrome panel assay with activity outcomes. Panel member name: p450-cyp2c19 Compounds with AC50 equal or less than 10 uM are considered active; assay type: functional; conditions: read-out: AC50
Sequence of Cytochrome P450 2C19 (P33261 whole entry): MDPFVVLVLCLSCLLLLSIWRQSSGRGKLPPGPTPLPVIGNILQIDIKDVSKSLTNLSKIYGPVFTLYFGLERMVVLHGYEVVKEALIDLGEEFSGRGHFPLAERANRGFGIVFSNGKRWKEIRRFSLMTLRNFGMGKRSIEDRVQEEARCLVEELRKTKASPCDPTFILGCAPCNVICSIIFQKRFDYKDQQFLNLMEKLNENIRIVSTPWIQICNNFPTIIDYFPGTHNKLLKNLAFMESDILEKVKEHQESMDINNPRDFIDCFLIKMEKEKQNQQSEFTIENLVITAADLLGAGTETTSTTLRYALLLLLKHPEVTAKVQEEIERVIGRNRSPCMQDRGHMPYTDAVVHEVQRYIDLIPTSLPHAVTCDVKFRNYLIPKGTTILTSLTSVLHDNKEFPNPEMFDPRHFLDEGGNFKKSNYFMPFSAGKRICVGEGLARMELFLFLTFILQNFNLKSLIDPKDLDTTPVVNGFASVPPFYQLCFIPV

[3] = HEp-2 cell cytotoxicity, dose response, cytotoxicity control for RSV inhibitor project, HTS (AID 2410); assay type: functional; conditions: human respiratory syncytial virus
[4] = cytotoxicity toward NIH3T3 fibroblasts, dose response, counter-screen, cell-based, ATP luminescence, mouse fibroblasts (AID 2010); assay type: functional;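 also: cells exposed to compound for about 90 hours before reading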
[5] = microbe, parasite or virus in culture; assay type: functional; conditions: Mycobacterium tuberculosis
[6] = inhibitors of intracellular T. cruzi replication, confirmation, NIH3T3 host cells, beta-gal luminescence (AID 2044); assay type: functional, cell-based;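 also: intracellular parasites grown in NIH/3T3 mouse fibroblasts as host cells; luminescent beta-galactosidase reporter signal from transgenic T. cruzi replicating inside host cells; inhibitors lower the luminescence signal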
[7] = target: Heat shock protein HSP 90-alpha (Homo sapiens, UniProt P07900); assay type: functional, organism-based
[8] = Shn3 3'UTR reporter inhibitors, dose response, cell-based, Clone20 osteoblasts, firefly luciferase, cherry-picked (AID 624132); assay type: functional;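 also: firefly luciferase luminescence from reporter carrying the Shn3 3'UTR in osteoblasts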
[9] = HepG2 cell cytotoxicity, dose response, cytotoxicity control for Shn3 inhibitor project, CellTiter-Glo, cherry-picked (AID 624134); assay type: functional, cell-based
[10] = control 3'UTR Renilla luciferase suppression, dose response, counter-screen for Shn3 inhibitor project, cell-based, Clone20-Shn3RL, cherry-picked (AID 624133); assay type: functional
[11] = target: T2, Insulin-degrading enzyme (Homo sapiens, UniProt P14735); assay: Dose Response: Fluorescence polarization-based cell-based high throughput dose response assay for inhibitors of insulin-degrading enzyme (IDE). [Related pubchem assays: 434962 (Primary screen (IDE inhibitors in singlicate)), 449730 (Counterscreen (Cytotoxicity in triplicate)), 435028 (Confirmation (IDE inhibitors in triplicate)), 434984 (Summary …; assay type: functional
T2 sequence (P14735 whole entry): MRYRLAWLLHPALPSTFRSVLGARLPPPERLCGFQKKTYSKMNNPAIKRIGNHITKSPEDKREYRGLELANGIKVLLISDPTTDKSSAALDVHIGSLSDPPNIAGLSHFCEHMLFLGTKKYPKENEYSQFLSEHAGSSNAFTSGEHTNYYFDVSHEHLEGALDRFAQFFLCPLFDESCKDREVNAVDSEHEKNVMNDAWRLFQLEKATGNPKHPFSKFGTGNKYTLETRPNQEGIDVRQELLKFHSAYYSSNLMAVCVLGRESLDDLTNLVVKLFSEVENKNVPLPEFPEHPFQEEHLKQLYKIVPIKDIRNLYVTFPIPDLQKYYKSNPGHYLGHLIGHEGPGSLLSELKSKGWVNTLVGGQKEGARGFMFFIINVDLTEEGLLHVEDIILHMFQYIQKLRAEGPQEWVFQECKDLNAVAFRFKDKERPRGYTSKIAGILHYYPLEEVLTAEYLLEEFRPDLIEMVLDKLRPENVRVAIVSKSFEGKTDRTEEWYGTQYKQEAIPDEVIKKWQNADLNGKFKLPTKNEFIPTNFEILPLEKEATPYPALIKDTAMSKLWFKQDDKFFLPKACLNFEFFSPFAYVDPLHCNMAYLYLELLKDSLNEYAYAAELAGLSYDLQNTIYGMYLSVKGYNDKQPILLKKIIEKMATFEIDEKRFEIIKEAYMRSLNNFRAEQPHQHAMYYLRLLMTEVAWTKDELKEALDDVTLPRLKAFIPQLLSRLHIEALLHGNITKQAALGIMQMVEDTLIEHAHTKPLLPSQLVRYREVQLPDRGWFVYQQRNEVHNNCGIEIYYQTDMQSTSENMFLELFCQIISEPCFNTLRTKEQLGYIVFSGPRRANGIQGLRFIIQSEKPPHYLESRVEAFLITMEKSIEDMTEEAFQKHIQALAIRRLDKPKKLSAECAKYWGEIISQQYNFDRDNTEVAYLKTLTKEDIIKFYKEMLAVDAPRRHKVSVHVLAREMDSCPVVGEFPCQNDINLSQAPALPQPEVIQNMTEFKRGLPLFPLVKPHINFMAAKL

[12] = Counterscreen for IDE inhibitors: Luminescence-based cell-based high throughput dose response assay to identify compounds that are cytotoxic to HEK cells. [Related pubchem assays: 434962 (Primary screen (IDE inhibitors in singlicate)), 449730 (Counterscreen (Cytotoxicity in triplicate)), 435028 (Confirmation (IDE inhibitors in triplicate)) …; assay type: functional; conditions: HEK293
[13] = target: Estrogen receptor beta (Homo sapiens, UniProt Q92731);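 also: recombinant ER-beta bound to coactivator SRC1 peptide in presence of estradiol agonist; inhibitors block coactivator peptide binding and lower the FRET signal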
Sequence of Estrogen receptor beta (Q92731 whole entry): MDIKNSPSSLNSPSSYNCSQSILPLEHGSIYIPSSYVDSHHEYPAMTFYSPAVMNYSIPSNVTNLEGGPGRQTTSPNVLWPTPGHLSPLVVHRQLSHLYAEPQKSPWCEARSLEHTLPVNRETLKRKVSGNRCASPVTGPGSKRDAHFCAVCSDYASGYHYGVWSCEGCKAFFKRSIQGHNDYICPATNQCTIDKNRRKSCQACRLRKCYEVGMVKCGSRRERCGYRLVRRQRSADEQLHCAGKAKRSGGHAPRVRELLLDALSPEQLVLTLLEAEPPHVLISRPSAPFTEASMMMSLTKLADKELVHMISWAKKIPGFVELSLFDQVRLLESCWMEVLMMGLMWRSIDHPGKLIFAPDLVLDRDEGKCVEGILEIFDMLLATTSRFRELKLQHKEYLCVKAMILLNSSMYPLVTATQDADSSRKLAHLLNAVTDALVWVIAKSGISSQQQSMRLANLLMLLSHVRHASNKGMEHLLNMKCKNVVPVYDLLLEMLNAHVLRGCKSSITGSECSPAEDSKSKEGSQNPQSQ

[14] = THP-1 cell cytotoxicity, dose response, cytotoxicity control for Vif-APOBEC3G degradation inhibitor project, THP-1 cells (AID 1117359); assay type: functional; conditions: Human immunodeficiency virus 1, THP-1
[15] = C. albicans growth with fluconazole, confirmation, fluorescence, retest (AID 2467); assay type: functional, cell-based
[16] = NIH-3T3 fibroblast cytotoxicity, dose response, cytotoxicity control, cell-based, fluorescence, Alamar Blue, secondary assay (AID 2327); assay type: functional;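 also: NIH-3T3 mouse fibroblasts cultured with fluconazole at 8 µg/mL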
[17] = target: T3, Rac GTPase-activating protein 1 (Homo sapiens, UniProt Q9H0H5); assay: MgcRacGAP GTPase-activating activity inhibitors, confirmation, biochemical, ADP Hunter fluorescence, primary and confirmatory (AID 624330); assay type: functional
T3 sequence (Q9H0H5 whole entry): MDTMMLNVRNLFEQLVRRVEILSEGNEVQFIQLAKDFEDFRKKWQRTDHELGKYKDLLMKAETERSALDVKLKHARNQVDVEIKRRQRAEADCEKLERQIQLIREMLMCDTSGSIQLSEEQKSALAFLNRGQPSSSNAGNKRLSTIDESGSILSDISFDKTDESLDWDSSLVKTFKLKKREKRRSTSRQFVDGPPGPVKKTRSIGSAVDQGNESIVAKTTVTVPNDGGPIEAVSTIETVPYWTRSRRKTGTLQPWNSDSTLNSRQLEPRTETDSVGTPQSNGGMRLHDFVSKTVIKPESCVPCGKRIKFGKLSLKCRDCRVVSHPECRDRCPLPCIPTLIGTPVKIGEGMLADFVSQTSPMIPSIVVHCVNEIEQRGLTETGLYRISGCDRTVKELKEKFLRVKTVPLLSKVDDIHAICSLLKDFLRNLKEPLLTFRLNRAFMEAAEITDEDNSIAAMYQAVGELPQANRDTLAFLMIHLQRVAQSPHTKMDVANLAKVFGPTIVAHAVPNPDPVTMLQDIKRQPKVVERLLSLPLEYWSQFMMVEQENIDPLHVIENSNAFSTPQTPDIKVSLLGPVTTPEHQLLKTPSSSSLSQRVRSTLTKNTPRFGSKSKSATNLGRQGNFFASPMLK

[18] = target: FAD-linked sulfhydryl oxidase ALR (Homo sapiens, UniProt P55789); assay: inhibitors of human ALR sulfhydryl oxidase, dose response, biochemical, H2O2 detection, luminescence, cherry-pick (AID 493248)
Sequence of FAD-linked sulfhydryl oxidase ALR (P55789 whole entry): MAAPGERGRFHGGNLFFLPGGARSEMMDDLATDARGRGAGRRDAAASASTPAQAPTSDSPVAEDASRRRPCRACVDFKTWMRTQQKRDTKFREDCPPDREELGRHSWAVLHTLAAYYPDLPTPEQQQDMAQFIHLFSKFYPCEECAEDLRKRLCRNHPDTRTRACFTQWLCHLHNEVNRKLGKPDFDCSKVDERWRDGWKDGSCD

[19] = intracellular Trypanosoma cruzi inhibitors in host cells – cell-based, plate reader, cherry-pick samples, set 3, dose response (AID 651818); assay type: functional;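 also: compounds incubated with infected cells for about four days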
[20] = target: Paired box protein Pax-8 (Homo sapiens, UniProt Q06710); assay: inhibitors of PAX8-driven TPO luciferase reporter, dose response, RMG-I cells, cherry-pick (AID 687027); assay type: functional, cell-based;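 also: luciferase reporter driven by Pax8 target thyroperoxidase promoter measured by SteadyGlo luminescence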
Sequence of Paired box protein Pax-8 (Q06710 whole entry): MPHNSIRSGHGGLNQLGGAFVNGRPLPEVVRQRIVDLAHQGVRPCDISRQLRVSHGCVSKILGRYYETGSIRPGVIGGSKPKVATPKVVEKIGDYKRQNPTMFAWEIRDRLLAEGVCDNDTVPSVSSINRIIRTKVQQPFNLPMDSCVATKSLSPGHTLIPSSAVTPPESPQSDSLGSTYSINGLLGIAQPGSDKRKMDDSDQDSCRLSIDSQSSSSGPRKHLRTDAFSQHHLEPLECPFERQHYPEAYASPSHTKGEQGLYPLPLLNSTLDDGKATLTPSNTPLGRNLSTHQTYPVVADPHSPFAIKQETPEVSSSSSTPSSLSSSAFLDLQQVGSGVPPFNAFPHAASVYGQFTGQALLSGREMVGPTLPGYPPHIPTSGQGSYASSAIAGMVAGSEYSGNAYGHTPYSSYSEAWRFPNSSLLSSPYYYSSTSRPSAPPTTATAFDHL

[21] = cytotoxicity in OVCAR8 ovarian cancer cells, dose response, PAX8 project, cell-based, plate reader, dry powder samples (AID 743197); assay type: functional; conditions: OVCAR-8
[22] = NIH:OVCAR-3 ovarian cancer cell cytotoxicity, dose response, PAX8 inhibitor project, plate reader, dry powder samples (AID 743044); assay type: functional, cell-based
[23] = growth suppression of PTEN-null colon cells, dose response, cell-based, HCT116 PTEN knockout (AID 1047); assay type: functional;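 also: HCT116 colon tumor cells with PTEN knocked out; cells exposed to compound for 60 hours before readout; potency for loss of cell viability measured by luminescence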
[24] = growth suppression of beta-catenin-knockout colon cells, dose response, cell-based, HCT116, human colon tumor (AID 1045); assay type: functional;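 also: HCT116 colon tumor cells with beta catenin knocked out; cells exposed to compound for 60 hours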

SMILES: CCOc1ccc2nc(NC(=O)c3ccc(S(=O)(=O)N4CCOCC4)cc3)sc2c1
- IC50 [1]: > 100 µM (inactive)
- AC50 [2]: 2.82 µM (inconclusive)

SMILES: O=C(Nc1ccc(SC(F)F)cc1)c1ccccc1F
- IC50 [1]: 23.1 µM (active)
- CC50 [3]: > 50 µM (active)

SMILES: CC1(c2cc([N+](=O)[O-])cc([N+](=O)[O-])c2)CC(C)(C)N(C(=O)c2ccccc2)c2ccccc21 (stereo not drawn)
- EC50 [4]: 10.7 µM (active)
- CC50 [5]: > 40 µM (active)
- EC50 [6]: 0.17 µM (active)

SMILES: Cc1cccc2cc(CN(Cc3nnnn3C3CCCCC3)C3CCCC3)c3nnnn3c12
- AC50 [7]: 2.18 µM (active)

SMILES: COc1ccc(-n2nnnc2-c2cnc(N3CCCC3)nc2C(F)(F)F)cc1
- AC50 [8]: 4.75 µM (active)
- AC50 [9]: 50.8 µM (active)
- AC50 [10]: 4.77 µM (active)

SMILES: c1ccc(-c2nc(-c3ccncc3)no2)cc1
- IC50 [1]: 16.3 µM (active)

SMILES: Cc1ccc(-c2cc(C(=O)Nc3ccc(S(=O)(=O)Nc4ncccn4)cc3)[nH]n2)c(O)c1C
- IC50 [11]: 17.7 µM (not active)
- IC50 [12]: > 55.7 µM (not active)

SMILES: O=C(NCc1ccc2c(c1)OCO2)c1ccc(Br)cc1
- AC50 [7]: 4.38 µM (active)

SMILES: CCOC(=O)C1C(=O)NC(SCC(N)=O)=C(C#N)C1c1ccccc1OCC (stereo not drawn)
- IC50 [11]: > 6.21 µM (active)
- IC50 [12]: > 55.7 µM (not active)

SMILES: C=CCn1c(SCc2cc(C(=O)OC)c(C)o2)nnc1-c1ccncc1
- IC50 [13]: > 50 µM (not active)

SMILES: CCCCc1ccc(NC(=O)CC(C)(C)C)cc1
- CC50 [14]: > 40 µM (active)

SMILES: COC(=O)c1ccc(C(=O)OC)c(NC(=O)CSc2cccc[n+]2[O-])c1
- CC50 [5]: > 40 µM (active)
- EC50 [15]: 1.34 µM (active)
- EC50 [16]: > 160 µM (inconclusive)

SMILES: Nc1cc([N+](=O)[O-])ccc1Nc1ccc(O)cc1
- IC50 [17]: 38.2 µM (active)
- AC50 [18]: 0.269 µM (active)
- CC50 [5]: > 40 µM (active)

SMILES: Cc1sc(NC(=O)C2=COCCO2)nc1-c1ccc(Cl)cc1
- IC50 [1]: > 100 µM (inactive)

SMILES: C[C@H]1CN([C@@H](C)CO)C(=O)Cc2cc(NC(=O)Nc3cccc4ccccc34)ccc2O[C@@H]1CN(C)Cc1ccc(C(F)(F)F)cc1
- AC50 [19]: 2.3 µM (active)

SMILES: Cc1cc(C(=O)Nc2cccc3c2O[C@@H](CN(C)Cc2ccc(C(=O)Nc4ccccc4N)cc2)[C@@H](C)CN([C@H](C)CO)C3=O)n(C)n1
- AC50 [19]: 2.45 µM (active)

SMILES: C[C@@H]1CN([C@@H](C)CO)C(=O)Cc2cc(NC(=O)Nc3ccc(C(F)(F)F)cc3)ccc2O[C@@H]1CN(C)Cc1ccc(Cl)c(Cl)c1
- AC50 [19]: 1.85 µM (active)

SMILES: C[C@H](CO)N1C[C@H](C)[C@H](CN(C)S(=O)(=O)c2cccs2)Oc2c(NC(=O)c3cnccn3)cccc2C1=O
- AC50 [19]: 2.44 µM (active)

SMILES: C[C@@H]1CN([C@H](C)CO)C(=O)c2cccc(NC(=O)Nc3ccc(C(F)(F)F)cc3)c2O[C@@H]1CN(C)Cc1ccc(Cl)c(Cl)c1
- AC50 [19]: 2.26 µM (active)

SMILES: C[C@H](CO)N1C[C@H](C)[C@H](CN(C)Cc2ccc(Oc3ccccc3)cc2)Oc2c(NC(=O)CCCCCC(=O)Nc3ccccc3N)cccc2C1=O
- AC50 [19]: 2.36 µM (active)

SMILES: C[C@H]1CN([C@@H](C)CO)C(=O)c2cc(NS(=O)(=O)c3ccc(Cl)cc3)ccc2O[C@H]1CN(C)Cc1ccc(Cl)c(Cl)c1
- AC50 [20]: 7.5 µM (active)
- AC50 [21]: > 70 µM (inactive)

SMILES: C[C@@H]1CN([C@H](C)CO)C(=O)c2cc(NC(=O)Nc3ccc(C(F)(F)F)cc3)ccc2O[C@@H](C)CCCCO[C@H]1CN(C)C(=O)NC1CCCCC1
- AC50 [20]: 2.8 µM (active)
- AC50 [22]: 27.4 µM (active)
- AC50 [21]: 47.2 µM (active)

SMILES: C[C@H](CO)N1C[C@H](C)[C@@H](CN(C)C(=O)C2CCCCC2)OCCCC[C@H](C)Oc2ccc(NS(=O)(=O)c3ccc(Cl)cc3)cc2C1=O
- AC50 [20]: 8.51 µM (active)
- AC50 [22]: 24.4 µM (active)

SMILES: C/C(=C\C(=S)Nc1ccccc1)Nc1ccc2ccccc2c1
- CC50 [5]: 36.2 µM (active)

SMILES: CC(C)N(C(=O)CO/N=C/c1cccc([N+](=O)[O-])c1)C(C)C
- CC50 [14]: > 40 µM (active)

SMILES: CCNc1nc(NC(C)(C)C)nc(N2CCCC2)n1
- EC50 [23]: 25 µM (active)
- EC50 [24]: 32.9 µM (active)

Reference: ChEMBL document CHEMBL1201862, “PubChem BioAssay data set” (2004)
